Reference: PubChem BioAssay (NCI)
Values joined by “and” are separate entries in the source; they are usually repeats but may differ in a detail not shown here. Equal entries are not always repeated.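 Test compounds were applied to cells in 96-well plates for 48 hours at 5 doses. The concentration for 50% growth inhibition is given as GI50. TGI marks complete inhibition of growth.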

Tests used:
Test in all cases: DTP human tumour cell line panel, 48 h
[1] = tested on: KM20L2 colon
[2] = tested on: LXFL 529 NSCLC
[3] = tested on: MALME-3M melanoma
[4] = tested on: OVCAR-5 ovarian
[5] = tested on: OVCAR-8 ovarian
[6] = tested on: SF-268 CNS
[7] = tested on: SK-MEL-28 melanoma
[8] = tested on: SNB-19 CNS
[9] = tested on: HCC-2998 colon
[10] = tested on: NCI/ADR-RES ovarian

Compound	TGI [1]	TGI [2]	TGI [3]	TGI [4]	TGI [5]	TGI [6]	TGI [7]	TGI [8]	TGI [9]	GI50 [9]	GI50 [3]	GI50 [10]	TGI [10]	GI50 [4]	GI50 [5]	GI50 [6]	GI50 [7]	GI50 [8]
O=C(O)CN(c1ccccc1)S(=O)(=O)c1cccc([N+](=O)[O-])c1	> 100 µM	> 100 µM	> 100 µM	> 100 µM	> 100 µM	> 100 µM	> 100 µM	> 100 µM										
COc1cccc(C=O)c1C(=O)c1cc(O)ccc1O	> 100 µM		37.5 µM	> 100 µM	46.5 µM	> 55.4 µM	> 61.4 µM	> 100 µM	> 100 µM									
CCN1CCC(CC(=O)Nc2n[nH]c3nnc(-c4cccc(F)c4F)cc23)CC1			> 25 µM	> 25 µM	> 25 µM	> 25 µM	> 25 µM	> 25 µM	> 25 µM	> 25 µM	> 25 µM	> 25 µM	> 25 µM	> 25 µM	> 25 µM	> 25 µM	> 25 µM	> 25 µM
COc1cc(-c2cc3ncccc3c3nc(OCCN(C)C)c4cccnc4c23)cc(OC)c1OC			2.5 µM	3.68 µM	1.94 µM	11 µM	2.42 µM	29.5 µM	3.1 µM	0.727 µM	0.431 µM	0.383 µM	2.1 µM	1.34 µM	0.339 µM	0.637 µM	0.639 µM	0.576 µM
Cc1ccccc1C1=C(c2cn(C)c3ccccc23)C(=O)NC1=O			> 25 µM	> 25 µM	> 25 µM	> 25 µM	> 25 µM	> 25 µM	> 25 µM	> 25 µM	23.9 µM	24.3 µM	> 25 µM	> 23.6 µM	> 22.5 µM	> 25 µM	> 25 µM	> 25 µM
COc1cc(OC)cc(Oc2cnc3cc(N)cc(N)c3n2)c1			22.5 µM	30.4 µM	52.5 µM	31.9 µM	28.4 µM	45.6 µM	28.8 µM	14.6 µM	10.7 µM	16.1 µM	43.5 µM	15.5 µM	22.6 µM	15.5 µM	14.2 µM	17.5 µM
O=[N+]([O-])c1ccc(/C=C/c2nc3ccc(Cl)cc3[nH]2)cc1			> 100 µM	> 100 µM	63.6 µM	> 100 µM	> 100 µM	> 100 µM	88.1 µM	19.5 µM	> 100 µM	15 µM	> 100 µM	> 100 µM	24.5 µM	> 100 µM	> 100 µM	> 100 µM
[O-]/N=[N+](/[O-])C1CCCCC1=[N+]1CCOCC1 (configuration not stated)		> 100 µM	> 100 µM	> 100 µM	> 100 µM	> 100 µM	> 100 µM	> 100 µM										
O=C(C=Nc1ccccc1C(=O)[O-])c1cccs1.O=C(C=Nc1ccccc1C(=O)[O-])c1cccs1.[Ni+2]	> 100 µM		> 100 µM	> 100 µM	> 100 µM	> 100 µM	> 100 µM	> 100 µM	> 100 µM									
O=C(CN1CCN(Cc2ccccc2Cl)CC1)NC1CC(=O)c2c(Br)sc(Br)c21 (configuration not stated)			43.8 µM	> 100 µM	54.8 µM	36.7 µM	32.2 µM	33.1 µM	35.1 µM	19.8 µM	21.6 µM	19.6 µM	41.9 µM	51.4 µM	24.8 µM	19 µM	18.1 µM	18.6 µM
CC1=C/C=C/C(=O)O[C@@H]([C@H](C)[C@H](O)[C@@H](C)NC(=O)C(C)C)[C@H](C)/C=C/C(C)=C/[C@H]2C=CCC[C@@]2(C)\C=C\1			8.4 µM	14.3 µM	34.2 µM	17.7 µM	8.48 µM	25.9 µM	23.5 µM	0.561 µM and 4.67 µM	2.01 µM and 1.71 µM	1.43 µM and 0.879 µM	27.6 µM	8.43 µM and 5.43 µM	3.17 µM and 0.989 µM		0.469 µM and 0.376 µM	2.01 µM and 0.736 µM
Fc1cc(F)c(F)c(S)c1F			> 100 µM	> 100 µM	> 100 µM	> 100 µM	> 100 µM	> 100 µM	> 100 µM				38.6 µM					
ClCCCSSCCCCl			> 100 µM	> 100 µM	> 75.8 µM	> 100 µM	> 100 µM	> 100 µM	> 88.2 µM				> 78 µM					
COC(=O)C1=COC2OC3C(C(C)O)C(=O)OC34C=CC1C24 (configuration not stated)			> 100 µM	> 100 µM	47.2 µM	> 100 µM	> 100 µM	> 100 µM	> 100 µM				69 µM					
COC(=O)C1CSC(c2csc(CCN)n2)=N1 (configuration not stated)	> 100 µM	> 100 µM	> 100 µM	> 100 µM	> 100 µM		> 100 µM	> 100 µM	> 100 µM									
COc1ccc(-c2cc(/C=C3\C(=O)Nc4cc(Cl)ccc43)[nH]n2)cc1			> 100 µM	> 100 µM	98.6 µM	> 100 µM	> 100 µM	> 100 µM	68.7 µM	8.72 µM	6.23 µM	2.79 µM	17.5 µM	5.89 µM	4.55 µM	5.84 µM	7.45 µM	4.65 µM
Cn1cc(C2=C(c3c4n(c5ccccc35)CCNC4)C(=O)NC2=O)c2ccccc21			> 24.1 µM	> 25 µM	> 25 µM	> 25 µM	> 25 µM	> 25 µM	> 17.4 µM	7.41 µM	> 11.5 µM	12.7 µM	> 25 µM	> 25 µM	> 16.9 µM	10.5 µM	> 15.3 µM	> 22 µM
CN(C)C1CCN(Cc2ccc(NC(=O)c3cncc(C#Cc4cnc(N)c5ncccc45)c3)cc2C(F)(F)F)CC1			1.65 µM	15.6 µM	29 µM	4.72 µM	1.74 µM	21.2 µM	20.2 µM	9.21 µM	0.828 µM	1.23 µM	2.7 µM	8.21 µM	9.11 µM	1.68 µM	0.912 µM	10 µM
